Data on three compounds can be found in ChEMBL document CHEMBL3886309, “Spiro compounds useful as inhibitors of stearoyl-coenzyme A delta-9 desaturase” (2015).

This assay has as its target T1, Stearoyl-CoA desaturase (Homo sapiens, UniProt O00767).
T1 sequence (O00767 whole entry): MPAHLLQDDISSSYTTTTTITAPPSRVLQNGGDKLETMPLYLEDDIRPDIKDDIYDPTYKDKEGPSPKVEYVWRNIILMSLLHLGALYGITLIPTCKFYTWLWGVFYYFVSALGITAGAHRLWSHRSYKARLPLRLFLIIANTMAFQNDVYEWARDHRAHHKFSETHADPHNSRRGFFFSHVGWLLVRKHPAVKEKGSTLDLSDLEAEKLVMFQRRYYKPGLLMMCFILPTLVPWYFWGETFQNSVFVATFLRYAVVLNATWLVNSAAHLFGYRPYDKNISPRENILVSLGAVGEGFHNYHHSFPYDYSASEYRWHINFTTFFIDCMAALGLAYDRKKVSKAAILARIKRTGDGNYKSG
Kind of assay: Enzyme Activity Assay: The potency of compounds of formula I against the stearoyl-CoA desaturase was determined by measuring the conversion of radiolabeled stearoyl-CoA to oleoyl-CoA using rat liver microsome or human SCD1 following previously published procedures with some modifications (Joshi, et al., J. Lipid Res., 18: 32-36 (1977); Talamo, et al., Anal. Biochem, 29: 300-304 (1969)). Liver microsome was prepared from male Wistar or Sprague Dawley rats on a high carbohydrate diet for 3 days (LabDiet #5803, Purina). The livers were homogenized (1:10 w/v) in a buffer containing 250 mM sucrose, 1 mM EDTA, 5 mM DTT and 50 mM Tris-HCl (pH 7.5). After a 100,000xg centrifugation for 60 min, the liver microsome pellet was suspended in a buffer containing 100 mM sodium phosphate, 20% glycerol, 2 mM DTT, and stored at -78° C. Human SCD1 desaturase system was reconstituted using human SCD1 from a baculovirus/Sf9 expression system, cytochrome B5 and cytochrome B5 reductase. Type of assay: microsomes. Background: Liver microsomes are vesicles of endoplasmic reticulum, rich in cytochrome P450 enzymes.

With `O=C(O)Cn1nnc(-c2cc(N3CCC4(CC3)CC(=O)c3c(Cl)cccc3O4)no2)n1`, the IC50 worked out at 17 nM.
As to `O=C(O)Cn1nnc(-c2nnc(N3CCC4(CC3)CC(=O)c3c(Cl)cccc3O4)s2)n1`, the IC50 is 24 nM.
Turning to `O=C(O)Cn1nnc(-c2cnc(N3CCC4(CC3)CC(=O)c3c(Cl)cccc3O4)s2)n1`, it took 12 nM to reach half-maximal inhibition (IC50).

The IC50 is the point on the concentration scale where inhibition reaches its midpoint. Higher therefore signals a need for much substance.
